The record followed here is ChEMBL document CHEMBL1127515, “The [(methyloxy)imino]methyl moiety as a bioisoster of aryl. A novel class of completely aliphatic beta-adrenergic receptor antagonists” (J Med Chem, 1994).

The target in experiment [1] is Beta-2 adrenergic receptor (Bos taurus, UniProt Q28044). Description: Binding affinity against beta-2-adrenergic receptor in bovine lung.
Experiment [2] deals with Beta-1 adrenergic receptor (Rattus norvegicus, UniProt P18090). Description: Binding affinity against beta-1-adrenergic receptor in rat brain. In kind it is tissue-based.
Chain of Beta-1 adrenergic receptor (Rattus norvegicus, UniProt P18090) (P18090 whole entry): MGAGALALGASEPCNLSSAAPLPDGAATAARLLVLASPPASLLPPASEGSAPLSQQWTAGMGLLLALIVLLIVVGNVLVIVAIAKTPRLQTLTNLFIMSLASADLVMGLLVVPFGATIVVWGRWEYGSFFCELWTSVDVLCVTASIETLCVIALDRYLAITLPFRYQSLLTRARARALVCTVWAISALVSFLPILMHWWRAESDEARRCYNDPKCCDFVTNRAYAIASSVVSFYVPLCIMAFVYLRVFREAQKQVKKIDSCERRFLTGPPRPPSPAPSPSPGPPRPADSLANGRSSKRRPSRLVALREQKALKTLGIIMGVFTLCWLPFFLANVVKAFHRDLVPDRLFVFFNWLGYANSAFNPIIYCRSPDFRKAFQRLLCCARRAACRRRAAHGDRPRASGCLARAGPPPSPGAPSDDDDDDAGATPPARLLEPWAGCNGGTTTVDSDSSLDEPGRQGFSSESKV
For experiment [3], the target named is Beta-1 adrenergic receptor (Cavia porcellus, UniProt B0FL73). Description: Inhibitory concentration against beta-1-adrenergic receptor in isolated guinea pig atria.
Chain of Beta-1 adrenergic receptor (Cavia porcellus, UniProt B0FL73) (B0FL73 whole entry): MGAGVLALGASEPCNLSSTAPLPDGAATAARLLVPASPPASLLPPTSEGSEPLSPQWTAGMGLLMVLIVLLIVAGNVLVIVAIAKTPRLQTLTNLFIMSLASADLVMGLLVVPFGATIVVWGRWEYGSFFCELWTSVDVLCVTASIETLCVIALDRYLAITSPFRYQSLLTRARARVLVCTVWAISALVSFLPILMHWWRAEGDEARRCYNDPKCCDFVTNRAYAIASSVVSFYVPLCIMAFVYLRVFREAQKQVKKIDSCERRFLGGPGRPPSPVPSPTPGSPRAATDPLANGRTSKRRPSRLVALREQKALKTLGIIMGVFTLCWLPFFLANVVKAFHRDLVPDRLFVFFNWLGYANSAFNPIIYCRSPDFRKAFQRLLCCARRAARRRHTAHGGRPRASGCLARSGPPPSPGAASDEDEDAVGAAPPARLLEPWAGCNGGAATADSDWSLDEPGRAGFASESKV
The target in experiment [4] is Beta-2 adrenergic receptor (Cavia porcellus, UniProt Q8K4Z4). Briefly: Inhibitory concentration against beta-2-adrenergic receptor in isolated guinea pig tracheal strips.
Chain of Beta-2 adrenergic receptor (Cavia porcellus, UniProt Q8K4Z4) (Q8K4Z4 whole entry): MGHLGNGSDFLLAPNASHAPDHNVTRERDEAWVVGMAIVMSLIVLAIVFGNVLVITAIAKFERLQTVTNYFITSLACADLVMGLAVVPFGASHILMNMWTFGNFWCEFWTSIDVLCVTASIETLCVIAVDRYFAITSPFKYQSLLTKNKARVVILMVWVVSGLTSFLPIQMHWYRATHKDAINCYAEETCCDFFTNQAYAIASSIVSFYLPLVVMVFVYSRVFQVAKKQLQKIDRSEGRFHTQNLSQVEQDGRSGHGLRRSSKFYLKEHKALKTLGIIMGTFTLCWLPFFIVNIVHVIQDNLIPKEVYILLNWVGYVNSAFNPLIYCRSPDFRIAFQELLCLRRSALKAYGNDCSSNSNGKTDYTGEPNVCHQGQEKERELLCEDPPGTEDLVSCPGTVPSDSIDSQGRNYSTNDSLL

Chain of Beta-2 adrenergic receptor (Bos taurus, UniProt Q28044) (Q28044 whole entry): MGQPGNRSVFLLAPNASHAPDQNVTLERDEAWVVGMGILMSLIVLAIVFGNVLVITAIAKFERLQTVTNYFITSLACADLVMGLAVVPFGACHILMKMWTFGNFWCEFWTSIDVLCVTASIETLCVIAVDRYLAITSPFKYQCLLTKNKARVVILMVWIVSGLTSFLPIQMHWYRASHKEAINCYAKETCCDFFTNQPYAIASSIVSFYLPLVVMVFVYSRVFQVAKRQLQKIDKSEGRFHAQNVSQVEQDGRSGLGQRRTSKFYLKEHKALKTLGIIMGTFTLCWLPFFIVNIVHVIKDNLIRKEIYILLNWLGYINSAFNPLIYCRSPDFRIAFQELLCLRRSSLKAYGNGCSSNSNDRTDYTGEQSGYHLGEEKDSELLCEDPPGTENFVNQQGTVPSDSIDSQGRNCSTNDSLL

By Ki is commonly meant a measure of affinity in units of concentration, obtained from inhibition or displacement. A higher Ki goes with lower affinity. As a reminder, the IC50 is the concentration that gives 50% inhibition. As to `C/C=N/OCC(O)CNC(C)C` (centres undefined), the Ki in experiment [1] was 7.2 µM; in experiment [2], 1.48 µM. For the same compound, the IC50 in experiment [3] is 30.2 µM; in experiment [4], 12.9 µM.

For `CCCO/N=C/C(O)CNC(C)C` (centres undefined), the Ki is 5.6 µM in experiment [1] and 1.24 µM in experiment [2]. The IC50 in experiment [3] was 15.5 µM; in experiment [4] it was 4.37 µM.

For the compound `CC/C=N/OCC(O)CNC(C)(C)C` (centres undefined), the results for the Ki in experiment [1] and in experiment [2] were 1.26 µM and 0.5 µM, respectively. In addition, the IC50 in experiment [3] was 26.3 µM; in experiment [4] it was 1.55 µM.

As to `CC/C=N/OCC(O)CNC(C)C` (centres undefined), the results for the Ki in experiment [1] and in experiment [2] were 4.58 µM and 2.2 µM, respectively. In addition, the IC50 is 15.5 µM in experiment [3] and 12 µM in experiment [4].

`CCO/N=C/C(O)CNC(C)C` (centres undefined): the Ki in experiment [1] worked out at 3.5 µM; in experiment [2], 1.04 µM. Further, the IC50 was 12.3 µM in experiment [3] and 3.31 µM in experiment [4].

Take `CCCO/N=C/C(O)CNC(C)(C)C` (centres undefined): the values for the IC50 in experiment [3] and in experiment [4] were 8.32 µM and 0.269 µM, respectively.

For `C/C=N/OCC(O)CNC(C)(C)C` (centres undefined), the Ki in experiment [1] worked out at 1.98 µM; in experiment [2] it was 0.76 µM. In addition, the IC50 in experiment [3] is 13.5 µM; in experiment [4] it was 4.07 µM.

On to `CCO/N=C/C(O)CNC(C)(C)C` (centres undefined), for which the Ki was determined as 1.4 µM in experiment [1] and 1.08 µM in experiment [2]. The IC50 was 13.8 µM in experiment [3] and 0.977 µM in experiment [4].

Turning to `CC(C)NCC(O)c1ccc(Cl)c(Cl)c1` (centres undefined) [DICHLOROISOPROTERENOL], the figures for the Ki in experiment [1] and in experiment [2] were 0.14 µM and 0.051 µM, respectively. The IC50 in experiment [3] is 0.115 µM; in experiment [4], 0.977 µM.
